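Assay format: 96-well plates, 48-hour exposure. GI50: concentration for 50% inhibition of growth.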 Calls of active or inactive are those of the source. Rule as the data show it: active = GI50 up to about 1.1 µM and inactive = higher.
How the values were obtained:
Experiment in all cases: inhibition of tumour cell growth, NCI panel, 48 h
SNB-75 = system: SNB-75
HOP-62 = system: HOP-62
HCT-116 = system: HCT-116
K562 = system: K562
OVCAR-5 = system: OVCAR-5
NCI-H460 = system: NCI-H460
EKVX = system: EKVX
MCF7 = system: MCF7
SW-620 = system: SW-620
KM12 = system: KM12
A549 = system: A549
MOLT-4 = system: MOLT-4
A498 = system: A498
HCC 2998 = system: HCC 2998
MDA-N = system: MDA-N
LOX IMVI = system: LOX IMVI
SNB-19 = system: SNB-19
DU-145 = system: DU-145
SK-MEL-28 = system: SK-MEL-28
OVCAR-3 = system: OVCAR-3
NCI/ADR-RES = system: NCI/ADR-RES
U-251 = system: U-251
NCI-H23 = system: NCI-H23
NCI-H226 = system: NCI-H226
SK-MEL-5 = system: SK-MEL-5
SN12C = system: SN12C
MDA-MB-231 = system: MDA-MB-231
OVCAR-8 = system: OVCAR-8
MDA-MB-435 = system: MDA-MB-435
BT-549 = system: BT-549
CCRF-CEM = system: CCRF-CEM
Hs-578T = system: Hs-578T
IGROV-1 = system: IGROV-1
HOP-92 = system: HOP-92
SK-OV-3 = system: SK-OV-3
NCI-H522 = system: NCI-H522
ACHN = system: ACHN
UO-31 = system: UO-31
SK-MEL-2 = system: SK-MEL-2
SR = system: SR
M14 = system: M14
CAKI-1 = system: CAKI-1
Malme-3M = system: Malme-3M
COLO 205 = system: COLO 205
UACC-62 = system: UACC-62
SF-295 = system: SF-295
786-0 = system: 786-0
RPMI-8226 = system: RPMI-8226
T47D = system: T47D
OVCAR-4 = system: OVCAR-4
PC-3 = system: PC-3
SF-268 = system: SF-268
HT-29 = system: HT-29
HCT-15 = system: HCT-15
UACC-257 = system: UACC-257
TK-10 = system: TK-10
SF-539 = system: SF-539
RXF 393 = system: RXF 393
HL-60 = system: HL-60

## COC12OC3(C4OC41)C(C(=O)O[C@H]3CO[Si](C)(C)C(C)(C)C)C2C(=O)Oc1ccccc1 (some centres undefined)
SNB-75
  GI50: > 100 µM (inactive)
HOP-62
  GI50: > 100 µM (inactive)
HCT-116
  GI50: > 100 µM (inactive)
K562
  GI50: > 100 µM (inactive)
OVCAR-5
  GI50: > 100 µM (inactive)
NCI-H460
  GI50: > 100 µM (inactive)
EKVX
  GI50: > 100 µM (inactive)
MCF7
  GI50: > 100 µM (inactive)
SW-620
  GI50: > 100 µM (inactive)
KM12
  GI50: > 100 µM (inactive)
A549
  GI50: > 100 µM (inactive)
MOLT-4
  GI50: > 100 µM (inactive)
A498
  GI50: > 100 µM (inactive)
HCC 2998
  GI50: > 100 µM (inactive)
MDA-N
  GI50: > 100 µM (inactive)
LOX IMVI
  GI50: > 100 µM (inactive)
SNB-19
  GI50: > 100 µM (inactive)
DU-145
  GI50: > 100 µM (inactive)
SK-MEL-28
  GI50: > 100 µM (inactive)
OVCAR-3
  GI50: > 100 µM (inactive)
NCI/ADR-RES
  GI50: > 100 µM (inactive)
U-251
  GI50: > 100 µM (inactive)
NCI-H23
  GI50: > 100 µM (inactive)
NCI-H226
  GI50: > 100 µM (inactive)
SK-MEL-5
  GI50: > 100 µM (inactive)
SN12C
  GI50: > 100 µM (inactive)
MDA-MB-231
  GI50: 57.3 µM (inactive)
OVCAR-8
  GI50: > 100 µM (inactive)
MDA-MB-435
  GI50: > 100 µM (inactive)
BT-549
  GI50: 0.991 µM (active)
CCRF-CEM
  GI50: 38.1 µM (inactive)
Hs-578T
  GI50: > 100 µM (inactive)
IGROV-1
  GI50: > 100 µM (inactive)
HOP-92
  GI50: > 100 µM (inactive)
SK-OV-3
  GI50: > 100 µM (inactive)
NCI-H522
  GI50: > 100 µM (inactive)
ACHN
  GI50: > 100 µM (inactive)
UO-31
  GI50: > 100 µM (inactive)
SK-MEL-2
  GI50: > 100 µM (inactive)
SR
  GI50: > 100 µM (inactive)
M14
  GI50: > 100 µM (inactive)
CAKI-1
  GI50: > 100 µM (inactive)
Malme-3M
  GI50: 92 µM (inactive)
COLO 205
  GI50: > 100 µM (inactive)
UACC-62
  GI50: > 100 µM (inactive)
SF-295
  GI50: > 100 µM (inactive)
786-0
  GI50: > 100 µM (inactive)
RPMI-8226
  GI50: 91 µM (inactive)
T47D
  GI50: > 100 µM (inactive)
OVCAR-4
  GI50: > 100 µM (inactive)
PC-3
  GI50: > 100 µM (inactive)
SF-268
  GI50: > 100 µM (inactive)
HT-29
  GI50: > 100 µM (inactive)
HCT-15
  GI50: > 100 µM
UACC-257
  GI50: > 100 µM (inactive)
TK-10
  GI50: > 100 µM (inactive)

## COC(=O)c1c2c(c3[nH]c4ccccc4c3c1C(=O)OC)C(=O)C1=C(C2=O)C2(Cl)C(Cl)C(Cl)C1(Cl)C2(Cl)Cl (centres undefined)
SNB-75
  GI50: 2.39 µM (inactive)
HOP-62
  GI50: 3.76 µM (inactive)
HCT-116
  GI50: 2.02 µM (inactive)
K562
  GI50: 2.01 µM (inactive)
OVCAR-5
  GI50: 4.69 µM (inactive)
NCI-H460
  GI50: 3.2 µM (inactive)
EKVX
  GI50: 3.92 µM (inactive)
MCF7
  GI50: 0.705 µM (active)
SW-620
  GI50: 0.353 µM (active)
SF-539
  GI50: 2.07 µM (inactive)
KM12
  GI50: 2.54 µM (inactive)
A549
  GI50: 3.21 µM (inactive)
RXF 393
  GI50: 1.71 µM (inactive)
MOLT-4
  GI50: 1.17 µM (inactive)
A498
  GI50: 0.432 µM (active)
HCC 2998
  GI50: 2.91 µM (inactive)
MDA-N
  GI50: 0.6 µM (active)
LOX IMVI
  GI50: 1.85 µM (inactive)
SNB-19
  GI50: 3.4 µM (inactive)
DU-145
  GI50: 2.07 µM (inactive)
SK-MEL-28
  GI50: 1.56 µM (inactive)
OVCAR-3
  GI50: 2.33 µM (inactive)
NCI/ADR-RES
  GI50: 2.62 µM (inactive)
U-251
  GI50: 2.42 µM (inactive)
NCI-H23
  GI50: 1.7 µM (inactive)
SK-MEL-5
  GI50: 1.31 µM (inactive)
SN12C
  GI50: 1.94 µM (inactive)
MDA-MB-231
  GI50: 1.85 µM (inactive)
OVCAR-8
  GI50: 1.75 µM (inactive)
MDA-MB-435
  GI50: 1.07 µM (active)
BT-549
  GI50: 1.96 µM (inactive)
CCRF-CEM
  GI50: 1.89 µM (inactive)
Hs-578T
  GI50: 3.13 µM (inactive)
HL-60
  GI50: 2.29 µM (inactive)
IGROV-1
  GI50: 2.69 µM (inactive)
HOP-92
  GI50: 1.77 µM (inactive)
SK-OV-3
  GI50: 4.36 µM (inactive)
NCI-H522
  GI50: 1.38 µM (inactive)
ACHN
  GI50: 1.92 µM (inactive)
UO-31
  GI50: 2.82 µM (inactive)
SR
  GI50: 0.489 µM (active)
M14
  GI50: 1.46 µM (inactive)
CAKI-1
  GI50: 3.18 µM (inactive)
Malme-3M
  GI50: 1.82 µM (inactive)
COLO 205
  GI50: 1.81 µM (inactive)
UACC-62
  GI50: 1.99 µM (inactive)
SF-295
  GI50: 3.63 µM (inactive)
786-0
  GI50: 2.68 µM (inactive)
RPMI-8226
  GI50: 1.19 µM (inactive)
T47D
  GI50: 1.35 µM (inactive)
OVCAR-4
  GI50: 1.84 µM (inactive)
PC-3
  GI50: 1.86 µM (inactive)
SF-268
  GI50: 0.436 µM (active)
HT-29
  GI50: 2.55 µM (inactive)
HCT-15
  GI50: 1.48 µM
TK-10
  GI50: 3.56 µM (inactive)

## CCCCOC(=O)Nc1ccc(S(=O)(=O)Nc2c(Cl)cccc2Cl)cc1
HOP-62
  GI50: 49 µM (inactive)
HCT-116
  GI50: 26.5 µM (inactive)
K562
  GI50: 19.6 µM (inactive)
OVCAR-5
  GI50: 42 µM (inactive)
NCI-H460
  GI50: 31.1 µM (inactive)
EKVX
  GI50: 26.6 µM (inactive)
MCF7
  GI50: 30.8 µM (inactive)
SW-620
  GI50: 24.4 µM (inactive)
SF-539
  GI50: 29.4 µM (inactive)
KM12
  GI50: 36.1 µM (inactive)
A549
  GI50: 37.4 µM (inactive)
RXF 393
  GI50: 36.9 µM (inactive)
MOLT-4
  GI50: 24.3 µM (inactive)
A498
  GI50: 11.1 µM (inactive)
HCC 2998
  GI50: 23.9 µM (inactive)
MDA-N
  GI50: 27.2 µM (inactive)
LOX IMVI
  GI50: 30.1 µM (inactive)
SNB-19
  GI50: 39.7 µM (inactive)
DU-145
  GI50: 38.9 µM (inactive)
SK-MEL-28
  GI50: 24.4 µM (inactive)
OVCAR-3
  GI50: 26.3 µM (inactive)
NCI/ADR-RES
  GI50: 24.3 µM (inactive)
U-251
  GI50: 36.1 µM (inactive)
NCI-H23
  GI50: 40.9 µM (inactive)
SK-MEL-5
  GI50: 14.1 µM (inactive)
SN12C
  GI50: 34.1 µM (inactive)
MDA-MB-231
  GI50: 25.1 µM (inactive)
OVCAR-8
  GI50: 22.3 µM (inactive)
MDA-MB-435
  GI50: 26.3 µM (inactive)
BT-549
  GI50: 17.7 µM (inactive)
CCRF-CEM
  GI50: 33.6 µM (inactive)
Hs-578T
  GI50: 43 µM (inactive)
HL-60
  GI50: 22.3 µM (inactive)
IGROV-1
  GI50: 30.4 µM (inactive)
HOP-92
  GI50: 24.2 µM (inactive)
SK-OV-3
  GI50: 25.2 µM (inactive)
NCI-H522
  GI50: 42.1 µM (inactive)
ACHN
  GI50: 30.2 µM (inactive)
UO-31
  GI50: 25.6 µM (inactive)
SK-MEL-2
  GI50: 26.9 µM (inactive)
SR
  GI50: 21.4 µM (inactive)
M14
  GI50: 43 µM (inactive)
CAKI-1
  GI50: 25.6 µM (inactive)
Malme-3M
  GI50: 26.9 µM (inactive)
COLO 205
  GI50: 16.1 µM (inactive)
UACC-62
  GI50: 21.2 µM (inactive)
SF-295
  GI50: 32.3 µM (inactive)
786-0
  GI50: 31.3 µM (inactive)
RPMI-8226
  GI50: 17.1 µM (inactive)
T47D
  GI50: 25.7 µM (inactive)
OVCAR-4
  GI50: 12.1 µM (inactive)
PC-3
  GI50: 43.3 µM (inactive)
SF-268
  GI50: 36.6 µM (inactive)
HT-29
  GI50: 14.5 µM (inactive)
HCT-15
  GI50: 26.7 µM
UACC-257
  GI50: 35.6 µM (inactive)
TK-10
  GI50: 36.6 µM (inactive)

— ChEMBL document CHEMBL1201862, “PubChem BioAssay data set” (2004)
